In patent US20110250262A1, “METHOD FOR PRODUCING LIPOSOME AND METHOD FOR DISSOLVING CHOLESTEROL” (BIOMEDCORE, INC., priority 2008, published 2011):

Assay: Visual examination of dissolution of phospholipid and cholesterol in sucrose solution containing t-BuOH during cooling from 80° C.
Format: physicochemical
Details: cooled from 80° C.
Protocol: […] […] The solution was in the white opaque state at 80° C. Next, the temperature control of the water bath was off while still stirred, so that the solution was slowly cooled down at room temperature. It took about 90 min for the temperature of the water bath to be cooled from 80° C. to 35° C. The solution, which was in the white opaque state at 80° C., turned into a slightly pale transparent state around at 72° C., and the transparency persisted until the temperature fell to around 62° C. From around 62° C., the solution started to become white opaque again, turning into a completely white opaque state at 58° C. This change of state was reversible: the similar change of state was observed when the temperature was gradually raised from room temperature.
This state persisted until the temperature fell down to about 35° C., where the solution suddenly changed into a white opaque state.

[1] = 200 mg cholesterol with 380 mg DPPC in 20 mL 10 wt/vol % sucrose solution + 4.25 mL t-BuOH

Row | Lower temperature of the transparent (dissolved) state of the solution [1] | Upper temperature of the transparent (dissolved) state of the solution [1] [°C] | SMILES | State of the aqueous solution (dissolution), cholesterol alone (40 mg cholesterol alone in 4 mL 10 wt/vol % sucrose solution + 0.85 mL t-BuOH) | State of the aqueous solution (dissolution), DPPC alone (75.9 mg DPPC alone in 4 mL 10 wt/vol % sucrose solution + 0.85 mL t-BuOH)
1 | around 62 °C | ~72 | CC(C)CCC[C@@H](C)[C@H]1CC[C@H]2[C@@H]3CC=C4C[C@@H](O)CC[C@]4(C)[C@H]3CC[C@]12C [cholesterol, Cholesterol] | the solution never became transparent at any temperature | –
2 | – | – | CCCCCCCCCCCCCCCC(=O)OC[C@H](COP(=O)([O-])OCC[N+](C)(C)C)OC(=O)CCCCCCCCCCCCCCC [DPPC, L-α-dipalmitoylphosphatidylcholine] | – | transparent state between 80 °C and 50 °C
